According to patent publication EP2669372A1, “HPPD variants and methods of use” (Bayer CropScience AG, priority 2010, dated 2012):
Read-outs that look alike come from different tables or passages of the source.

What was measured:
Experiment in all cases: biochemical
[1] = biological target: T1, Arabidopsis HPPD single point mutant "SEQ ID No. 35" (Arabidopsis thaliana, UniProt P93836, E252S)
T1 construct: encoding mutant HPPD polypeptide, plus containing at the 5' end a nucleic acid encoding an alanine and 6 histidine amino acids; Ala + His6 behind Met1 (N); made in house; host or cells: E. coli BL21 (DE3) (described for the wild type construct)
T1 sequence (P93836 whole entry E252S): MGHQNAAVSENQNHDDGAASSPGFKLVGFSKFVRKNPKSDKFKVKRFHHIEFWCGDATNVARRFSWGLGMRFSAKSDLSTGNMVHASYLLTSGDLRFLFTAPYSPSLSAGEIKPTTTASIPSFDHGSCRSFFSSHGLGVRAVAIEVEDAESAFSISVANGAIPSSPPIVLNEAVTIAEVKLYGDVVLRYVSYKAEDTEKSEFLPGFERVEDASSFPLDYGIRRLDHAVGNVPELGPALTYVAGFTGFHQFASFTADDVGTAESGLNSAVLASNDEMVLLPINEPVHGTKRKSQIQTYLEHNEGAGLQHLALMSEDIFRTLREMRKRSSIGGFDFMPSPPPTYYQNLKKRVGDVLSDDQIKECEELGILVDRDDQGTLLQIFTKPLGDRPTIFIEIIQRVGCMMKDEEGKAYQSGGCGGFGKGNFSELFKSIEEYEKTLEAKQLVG
Excerpt: (§1) In this content, pI50-value means the log value of the concentration of inhibitor necessary to inhibit 50% of the enzyme activity in molar concentration.

[2] = biological target: T2, Arabidopsis HPPD single point mutant "SEQ ID No. 48" (Arabidopsis thaliana, UniProt P93836, K421Q)
T2 construct: encoding mutant HPPD polypeptide, plus containing at the 5' end a nucleic acid encoding an alanine and 6 histidine amino acids; made in house; host or cells: E. coli BL21 (DE3) (described for the wild type construct)
T2 sequence (P93836 whole entry K421Q): as the sequence (P93836 whole entry E252S) above, with S252E, K421Q counted along it
Excerpt: as §1

[3] = biological target: T3, Arabidopsis HPPD single point mutant "SEQ ID No. 44" (Arabidopsis thaliana, UniProt P93836, L368M)
T3 construct: encoding mutant HPPD polypeptide, plus containing at the 5' end a nucleic acid encoding an alanine and 6 histidine amino acids; made in house; host or cells: E. coli BL21 (DE3) (described for the wild type construct)
T3 sequence (P93836 whole entry L368M): as the sequence (P93836 whole entry E252S) above, with S252E, L368M counted along it
Excerpt: as §1

[4] = biological target: T4, Arabidopsis HPPD single point mutant "SEQ ID No. 50" (Arabidopsis thaliana, UniProt P93836, K421V)
T4 construct: encoding mutant HPPD polypeptide, plus containing at the 5' end a nucleic acid encoding an alanine and 6 histidine amino acids; made in house; host or cells: E. coli BL21 (DE3) (described for the wild type construct)
T4 sequence (P93836 whole entry K421V): as the sequence (P93836 whole entry E252S) above, with S252E, K421V counted along it
Excerpt: as §1

[5] = biological target: T5, Arabidopsis HPPD single point mutant "SEQ ID No. 40" (Arabidopsis thaliana, UniProt P93836, V269A)
T5 construct: encoding mutant HPPD polypeptide, plus containing at the 5' end a nucleic acid encoding an alanine and 6 histidine amino acids; made in house; host or cells: E. coli BL21 (DE3) (described for the wild type construct)
T5 sequence (P93836 whole entry V269A): as the sequence (P93836 whole entry E252S) above, with S252E, V269A counted along it
Excerpt: as §1

[6] = biological target: T6, Arabidopsis HPPD single point mutant "SEQ ID No. 46" (Arabidopsis thaliana, UniProt P93836, K421I)
T6 construct: encoding mutant HPPD polypeptide, plus containing at the 5' end a nucleic acid encoding an alanine and 6 histidine amino acids; made in house; host or cells: E. coli BL21 (DE3) (described for the wild type construct)
T6 sequence (P93836 whole entry K421I): as the sequence (P93836 whole entry E252S) above, with S252E, K421I counted along it
Excerpt: as §1

[7] = biological target: T7, Arabidopsis HPPD single point mutant "SEQ ID No. 42" (Arabidopsis thaliana, UniProt P93836, P280A)
T7 construct: encoding mutant HPPD polypeptide, plus containing at the 5' end a nucleic acid encoding an alanine and 6 histidine amino acids; made in house; host or cells: E. coli BL21 (DE3) (described for the wild type construct)
T7 sequence (P93836 whole entry P280A): as the sequence (P93836 whole entry E252S) above, with S252E, P280A counted along it
Excerpt: as §1

| SMILES | IC50 [1] | IC50 [2] | IC50 [3] | IC50 [4] | IC50 [5] | IC50 [6] | IC50 [7] | IC50 ([3]; read-out: pI50 (converted)) |
| --- | --- | --- | --- | --- | --- | --- | --- | --- |
| Cc1ccc(S(=O)(=O)Oc2c(C(=O)c3ccc(Cl)cc3Cl)c(C)nn2C)cc1 [Pyrazolat] | 20 µM | 10 µM | 12.6 µM | 31.6 µM | 39.8 µM | 31.6 µM | 20 µM | – |
| Cc1nn(C)c(O)c1C(=O)c1ccc(C(F)(F)F)cc1S(C)(=O)=O [Pyrasulfotole] | 50.1 µM | 15.8 µM | – | 39.8 µM | 39.8 µM | 50.1 µM | 39.8 µM | 10 µM |
